# In patent EP0617001B1, “Phenoxyphenylacetic acid derivatives” (Merck & Co., Inc., priority 1993, dated 1994):
# Counter-ions that a name gives are not always drawn.
# Columns and labels:
# Anesthetized Male Dog [1] = experiment: ET-1 induced changes in diastolic blood pressure (DBP) and intra-urethral pressure (IUP) in the anesthetized male dog; format: in vivo, mongrel dog; details: for % INHIBITION of ET-1 induced change in DBP, DEPRESSOR / % INHIBITION of ET-1 induced change in DBP, PRESSOR / % INHIBITION of ET-1 induced change in IUP, PRESSOR: 30 mg/kg intra-venous
# Description: Methodology for determining whether an ET-1 selective antagonist could inhibit the ET-1 mediated prostatic urethral contractions in a mongrel dog model:
# (§1) On separate days, two fasted male mongrel dogs (HRP, Inc.) weighing 11.0 and 12.4 kg, were anesthetized with Sodium Pentobarbital (Steris Laboratories, Inc.) at 35 mg/kg (i.v.) to effect, followed by 4 mg/kg/hr (i.v.) infusion. A cuffed endotracheal tube was inserted and each animal was ventilated with room air using a positive displacement large animal ventilator (Harvard Apparatus) at a rate of 18 breaths/minute and an average tidal volume of 18 ml/kg body weight. Body temperature was maintained with a heating pad and heat lamp using a temperature controller (YSI) and esophageal probe. Two catheters (PE 260) were placed in the aorta via the femoral arteries (one in each artery) for administration of endothelin or phenylephrine and for continuous direct monitoring of blood pressure and heart rate using a Statham blood pressure transducer (Spectramed) and a computer system (Modular Instruments, Inc.). Two other catheters (PE 260) were placed in the vena cava via the femoral veins (one catheter in each vein) for administration of pentobarbital and N-(4-iso-propylbenzenesulfonyl)-α-(4-carboxy-2-n-propylphenoxy)-3,4-methylenedioxyphenylacetamide dipotassium salt [Example 42]. A supra-pubic incision approximately one-half inch lateral to the penis was made to expose the ureters, urinary bladder, prostate, and urethra. The dome of the bladder was retracted to facilitate dissection of the ureters. The ureters were cannulated with PE 90 and tied off to the bladder. Umbilical tape was passed beneath the urethra at the bladder neck and another piece of tape was placed approximately 1-2 cm. distal to the prostate. The bladder dome was incised and a Micro-tip® catheter transducer (Millar Instruments, Inc.) was advanced into the urethra. The neck of the bladder was ligated with the umbilical tape to hold the transducer. The bladder incision was sutured wit 3-0 silk (purse string suture). The transducer was withdrawn until it was positioned in the prostatic urethra. The position of the Micro-tip® catheter was verified by gently squeezing the prostate and noting the large change in urethral pressure prior to ligating the distal urethra.
# (§2) Phenylephrine (PB) (10 µg/kg, intra-arterial) was administered and pressor effects on diastolic blood pressure (DBP) and intra-urethral pressure (IUP) were noted. When blood pressure returned to baseline, endothelin-1 (ET-1) (1 nmole/kg, intra-arterial) was administered. Changes in DBP and IUP were monitored for one hour and an ET-1 selective endothelin antagonist, such as the compound of Example 42, N-(4-iso-propylbenzene-sulfonyl)-α-(4-carboxy-2-n-propylphenoxy)-3,4-methylenedioxyphenyl-acetamide dipotassium salt (30 mg/kg, intra-venous) was administered. Ten to fifteen minutes later when blood pressure had stabilized, ET-1 was administered again, and inhibition of ET-1 induced effects were noted. PE was administered at the end of the experiment to verify specificity for ET-1 blockade. The dogs were euthanized with an overdose of pentobarbital followed by saturated KCl.
# (§3) All drugs were dissolved in isotonic saline solution.
# Anesthetized Male Dog [2] = experiment: Phenylephrine (PE)-induced changes in DBP and IUP in the anesthetized male dog (specificity for ET-1 blockade); format: in vivo, mongrel dog
# Description: as §1, with “Two other catheters (PE 260) were placed in the vena cava via the femoral veins (one catheter in each vein) for administration of pentobarbital and N-(4-iso-propylbenzenesulfonyl)-α-(4-carboxy-2-n-propylphenoxy)-3,4-methylenedioxyphenylacetamide dipotassium salt [Example 42].” left out
# as §2, with “Changes in DBP and IUP were monitored for one hour and an ET-1 selective endothelin antagonist, such as the compound of Example 42, N-(4-iso-propylbenzene-sulfonyl)-α-(4-carboxy-2-n-propylphenoxy)-3,4-methylenedioxyphenyl-acetamide dipotassium salt (30 mg/kg, intra-venous) was administered.” left out
# as §3
# rat prostate = experiment: In situ rat prostate: ET-1 induced contraction; format: in vivo, Sprague-Dawley rats; details: antagonist injected IA
# Description: Male Sprague-Dawley rats (Taconic Farms) weighing 300-400 grams were anesthetized with urethane (1.75 g/kg, ip), a tracheal cannula was inserted, and the femoral artery was cannulated. Core body temperature was maintained at 37 + 0.5 °C. A 4-5 cm midline abdominal incision was made to expose the bladder and prostate. The prostate was separated from the bladder and surrounding capsule by blunt dissection with a forcep. A length of surgical silk was gently secured around the anterior tips of the prostate lobes. A second length of surgical silk attached to an atraumatic needle was passed through and tied to the base of the prostate approximately 10-12 mm posterior to the first tie. The posterior ligature was secured to an anchor post whereas the anterior ligature was connected to a Grass FT03 transducer (Grass Instruments, Quincy, MA) and maintained at a tension of 1 g. Signals from the transducer were amplified and recorded on a polygraph (Hewlett-Packard 8805B amplifiers and 7758A recorder, Palo Alto, CA). After equilibrating for approximately 15 min, the rats were administered pretreatment drugs (atropine 1 mg/kg, (+) propranolol 1 mg/kg) 10 min apart through the intra-arterial (IA) cannula. […] The response of the prostate to FT-1 was quantified by measuring the change (Δ) from baseline tension to the peak of the response during the 5-minute period after the third FT-1 injection.
# [3] = ET-1 challenge after antagonist 30 mg/kg intra-venous, MEAN, n=2 dogs
# [4] = ET-1 challenge after antagonist 30 mg/kg intra-venous, dog HG FMHK
# [5] = ET-1 challenge after antagonist 30 mg/kg intra-venous, dog HG FMJC
# [6] = 30 mg/kg intra-venous, dog HG FMJC
# [7] = Phenylephrine alone, 10 µg/kg intra-arterial, dog HG FMJC
# [8] = ET-1 (i.a.) alone, 1 nmole/kg, MEAN, n=2 dogs
# [9] = ET-1 (i.a.) alone, 1 nmole/kg, dog HG FMHK
# [10] = ET-1 (i.a.) alone, 1 nmole/kg, dog HG FMJC
compound,measurement,setting,value
"CCCc1cc(C(=O)O)ccc1OC(C(=O)NS(=O)(=O)c1ccc(C(C)C)cc1)c1ccc2c(c1)OCO2 (stereo not drawn) [Example 42, N-(4-iso-propylbenzenesulfonyl)-α-(4-carboxy-2-n-propylphenoxy)-3,4-methylenedioxyphenylacetamide dipotassium salt]","% INHIBITION of ET-1 induced change in DBP, DEPRESSOR","Anesthetized Male Dog [1]; MEAN, n=2 dogs",69%
same,"% INHIBITION of ET-1 induced change in DBP, PRESSOR","Anesthetized Male Dog [1]; MEAN, n=2 dogs",76%
same,"% INHIBITION of ET-1 induced change in IUP, PRESSOR","Anesthetized Male Dog [1]; MEAN, n=2 dogs",93%
same,"% INHIBITION of ET-1 induced change in DBP, DEPRESSOR",Anesthetized Male Dog [1]; dog HG FMHK,67%
same,"% INHIBITION of ET-1 induced change in DBP, PRESSOR",Anesthetized Male Dog [1]; dog HG FMHK,94%
same,"% INHIBITION of ET-1 induced change in IUP, PRESSOR",Anesthetized Male Dog [1]; dog HG FMHK,91%
same,"% INHIBITION of ET-1 induced change in DBP, DEPRESSOR",Anesthetized Male Dog [1]; dog HG FMJC,70%
same,"% INHIBITION of ET-1 induced change in DBP, PRESSOR",Anesthetized Male Dog [1]; dog HG FMJC,58%
same,"% INHIBITION of ET-1 induced change in IUP, PRESSOR",Anesthetized Male Dog [1]; dog HG FMJC,94%
same,CHANGE IN DBP (mmHg) DEPRESSOR,Anesthetized Male Dog [1]; [3],-4 mmHg
same,CHANGE IN DBP (mmHg) PRESSOR,Anesthetized Male Dog [1]; [3],5 mmHg
same,CHANGE IN IUP (mmHg) PRESSOR,Anesthetized Male Dog [1]; [3],1 mmHg
same,CHANGE IN DBP (mmHg) DEPRESSOR,Anesthetized Male Dog [1]; [4],-5 mmHg
same,CHANGE IN DBP (mmHg) PRESSOR,Anesthetized Male Dog [1]; [4],2 mmHg
same,CHANGE IN IUP (mmHg) PRESSOR,Anesthetized Male Dog [1]; [4],1 mmHg
same,CHANGE IN DBP (mmHg) DEPRESSOR,Anesthetized Male Dog [1]; [5],-3 mmHg
same,CHANGE IN DBP (mmHg) PRESSOR,Anesthetized Male Dog [1]; [5],8 mmHg
same,CHANGE IN IUP (mmHg) PRESSOR,Anesthetized Male Dog [1]; [5],1 mmHg
same,hemodynamic and prostatic urethral responses to ET-1,Anesthetized Male Dog [1]; anesthetized dogs,specifically inhibited
same,"% Inhibition of Control, PE-induced INCREASE IN DBP",Anesthetized Male Dog [2]; [6],35%
same,"% Inhibition of Control, PE-induced INCREASE IN IUP",Anesthetized Male Dog [2]; [6],13%
same,Intra-arterial PE-induced increases in DBP and IUP after administration,Anesthetized Male Dog [2]; one dog studied,did not change significantly
same,inhibition of ET-1 to contract the prostate,rat prostate,specific inhibition
"CNC[C@H](O)c1cccc(O)c1 [Phenylephrine, reference compound]",INCREASE IN DBP (mmHg),Anesthetized Male Dog [2]; [7],17 mmHg
same,INCREASE IN IUP (mmHg),Anesthetized Male Dog [2]; [7],31 mmHg
Endothelin-1 [ET-1],CHANGE IN DBP (mmHg) DEPRESSOR,Anesthetized Male Dog [1]; [8],-13 mmHg
same,CHANGE IN DBP (mmHg) PRESSOR,Anesthetized Male Dog [1]; [8],26 mmHg
same,CHANGE IN IUP (mmHg) PRESSOR,Anesthetized Male Dog [1]; [8],15 mmHg
same,CHANGE IN DBP (mmHg) DEPRESSOR,Anesthetized Male Dog [1]; [9],-15 mmHg
same,CHANGE IN DBP (mmHg) PRESSOR,Anesthetized Male Dog [1]; [9],33 mmHg
same,CHANGE IN IUP (mmHg) PRESSOR,Anesthetized Male Dog [1]; [9],11 mmHg
same,CHANGE IN DBP (mmHg) DEPRESSOR,Anesthetized Male Dog [1]; [10],-10 mmHg
same,CHANGE IN DBP (mmHg) PRESSOR,Anesthetized Male Dog [1]; [10],19 mmHg
same,CHANGE IN IUP (mmHg) PRESSOR,Anesthetized Male Dog [1]; [10],18 mmHg
same,decrease in DBP,"Anesthetized Male Dog [1]; ET-1 alone, 1 nmole/kg intra-arterial, average of both dogs",13 mmHg
